Blank lines part the entries; values can stand above or below the molecule they belong to.
How the values were obtained:
[1] = test system: GEPCOT cells; settings: 3.0 mM EDTA in staining medium (slight excess over 2.7 mM divalent cations)
Experimental: In the inventors' experiments, the staining medium the inventors employed contained 3.0 mM EDTA, enough to neutralize 2.7 mM of divalent cations in the staining medium (with a small surplus). […] The inventors pre-diluted 0.5M EDTA (made from Na2H2EDTA, pH 8.0) to 77.7 mM (309 mOsm) before adding it to the staining medium.
SVZ cell preparation. SVZs from adult (8-60 week old) mice were dissected as described (Mirzadeh et al., 2010). SVZs were minced and digested with 300 μl of trypsin solution (Ca and Mg-free HBSS, 10 mM HEPES, 0.5 mM EDTA, 0.25 mg/mL trypsin (EMD Millipore), 10 μg/mL DNase I (Roche), pH 7.6) at 37° C. for 20 minutes. Digestion was quenched with three volumes of staining medium (440 ml Leibovitz L-15 medium, 50 ml water, 5 ml 1M HEPES pH 7.3-7.4, 5 ml 100× Pen-Strep, 20 ml 77.7 mM EDTA pH 8.0 [prepared from Na2H2EDTA], 1 g bovine serum albumin [Sigma A7030]) containing 100 μg/ml trypsin inhibitor (Sigma T6522) and 10 μg/ml DNase I (Roche).

[2] = test system: SVZ cells; assay: TMZ regeneration assay: total and dividing (BrdU) SVZ cells; format: in vivo, mouse
Text: (§1) All data represent mean ±s.d.

[3] = test system: NICs; assay: TMZ regeneration assay: neurosphere-initiating cells (NICs); format: in vivo, mouse
Text: as §1
(§2) The cell suspension was then filtered through a 45-micron mesh, counted on a hemocytometer, and added to culture or processed for flow cytometry. […] For adherent colony formation, Tg(Ubc-GFP) SVZ cells were co-cultured with 80-90% confluent nontransgenic neonatal SVZ-derived astrocytes isolated and passaged twice prior to the experiment. GFP fluorescence was used to assess colony formation after 12-20 days in culture.

[4] = Body mass after TMZ treatment; format: in vivo, mouse; settings: three days after TMZ, 100 mg/kg/day i.p. for 3 consecutive days
[5] = test system: GEPCOT cells; assay: TMZ regeneration assay: GEPCOT cells per SVZ by flow cytometry; settings: for number of unlabeled GEPCOTs per SVZ: Ascl1CreERT2 reporter mice, tamoxifen then TMZ
Experimental: TMZ regeneration assay. TMZ (temozolomide; Sigma T2577) was dissolved in 25% DMSO/75% 0.9% saline solution at 10 mg/ml by heating briefly to 90-100° C., then shaking and rapidly cooling. Mice were injected at 100 mg/kg/day for three consecutive days then allowed to recover for 3-90 days before analysis. Mice with enlarged spleen or thymus (sometimes present at 90 days after TMZ treatment) were excluded from analysis.
To stain SVZ cells with the combination of markers used to isolate GEPCOT or pre-GEPCOT cells, dissociated SVZ cells were centrifuged (220 g, 4 min, 4° C.) and resuspended in 100 μl staining medium per brain. Then the following antibodies were added: BV421 anti-Ter119 (Biolegend 116233, 1/100), BV421 anti-CD45 (Biolegend 103133, 1/100), APC-eFluor 780 anti-CD24 (eBioscience 47-0242-82, 1/200), 5A5 ascites (anti-PSA-NCAM; Developmental Studies Hybridoma Bank, 1/100), O4 ascites (1/200), anti-PlexinB2 (eBioscience 14-5665-82, 1/100), biotinylated anti-EGFR (R&D Systems BAF1280, 1/200), anti-Glast (Miltenyi Biotec 130-095-822, 1/10), and DAPI (50 μg/ml, 1/100). After adding antibodies, the cells were incubated on ice for 45 minutes, then washed with 2.5 ml fresh staining medium and pelleted (220 g for 4 minutes at 4° C.) and resuspended in secondary antibodies. Typically, the inventors used the following combination: APC anti-mouse IgG2a (Jackson Immunoresearch 115-135-206,1/200), PE anti-hamster IgG (Jackson Immunoresearch 127-115-160, 1/200), PE-Cy7 anti-mouse IgM (eBioscience 25-5790-82, 1/100), BV605-Streptavidin (BD Biosciences 563260, 1/200). However, when analyzing mice expressing tdTomato, the inventors used the following alternative secondary antibodies: PerCP-eFluor 710 anti-mouse IgG (eBioscience 46-4010-82, 1/100), APC anti-hamster IgG (Jackson Immunoresearch 127-135-160, 1/200), PE-Cy7 anti-mouse IgM (eBioscience 25-5790-82, 1/100), and BV605-Streptavidin (BD Biosciences 563260, 1/200). Cells were stained with secondary antibodies on ice for 45 minutes, then washed and pelleted as above, and analyzed on the FACSAria in a volume of 200 μl per brain.

[6] = test system: adult SVZ cells; assay: Neurosphere formation (clonogenesis) of adult SVZ cells with culture additives; format: cell-based, mouse
Text: Rock inhibitor (Y-27632) and IGF1 increase clonogenesis after sorting. The process of being sorted has a negative effect on neurosphere formation from adult SVZ cells: at the beginning of their experiments the inventors observed a 3-fold loss of activity in sorted live SVZ cells compared to crude unsorted cells. […] The inventors wondered how to sort gently to overcome the fragility of adult SVZ cells.
(§3) The mechanisms underlying these effects are unclear but may involve promotion of cell survival after sorting or repression of BMP signaling (Hsieh et al., 2004). When using both these culture additives, there was little difference between sorted live SVZ cells and an equal number of cells added to culture by pipette in terms of the numbers of neurospheres they made.
After adding 10% CEE to the culture medium, sorted cell-derived primary neurospheres were indistinguishable in size and number from neurospheres cultured from cells pipetted into culture.
as §2

[7] = test system: neonatal SVZ cells; assay: Neurosphere formation of neonatal SVZ cells with culture additive; format: cell-based, mouse; settings: 10 μM
Text: as §3

[8] = three days after TMZ (100 mg/kg/day i.p., 3 days)

Molecule: O=C(O)CN(CCN(CC(=O)O)CC(=O)O)CC(=O)O [EDTA]
effect on the yield of GEPCOT cells [1]: 2-3 fold

loss of body mass as compared to before TMZ treatment [4]: less than 3%
Molecule: Cn1nnc2c(C(N)=O)ncn2c1=O [TMZ, temozolomide]
number of dividing SVZ cells, recovery as % of normal ([2]; 90 days after TMZ treatment): 50 % of normal | reduction in the number of dividing SVZ cells, based on BrdU incorporation [2, 8]: 80% | reduction in the total number of cells per SVZ [2, 8]: 23% | NICs recovered, % of normal levels ([3]; 16 days after TMZ treatment): 20 % of normal | NICs recovered, % of normal ([3]; 90 days after TMZ): 55 % of normal | NICs remaining relative to saline-treated control mice ([3]; three days after TMZ): 0.7% | GEPCOTs recovered, % of normal levels ([5]; 16 days after TMZ treatment): 32 % of normal | GEPCOTs recovered, % of normal levels ([5]; 90 days after TMZ treatment): 55 % of normal | number of unlabeled GEPCOTs per SVZ ([5]; 3 days after TMZ): 120±50 | number of unlabeled GEPCOTs per SVZ ([5]; 35 days after TMZ): 640±210 | GEPCOTs remaining relative to saline-treated control mice ([5]; three days after TMZ treatment): 10%

Molecule: IGF1: IGF-1 growth factor (R&D Systems 291-G1) added to culture medium
clonogenesis after sorting ([6]; 20 ng/ml in culture medium, in addition to Y-27632): further improved clonogenesis after sorting

Molecule: Y-27632 hydrochloride
effect on neurosphere formation ([7]; crude neonatal SVZ cells): did not have any effect | effect on neurosphere formation ([7]; sorted neonatal SVZ cells): did not have any effect | increase in neurosphere formation ([6]; 10 μM in culture medium, adult cells after sorting): approximately two-fold | effect on neurosphere formation ([6]; 10 μM, adult SVZ cells pipetted into the culture medium): did not have any effect
